Measured values: PMC5554137, “Evaluation of novel factor Xa inhibitors from Oxya chinensis sinuosa with anti-platelet aggregation activity” (Scientific Reports, 2017)

Columns and labels:
[1] = target: tPA (Homo sapiens, UniProt P00750); test: Chromogenic substrate assay, Ki determination, tPA; format: biochemical; details: for Ki: substrate S-2228
Procedure: (§1) The inhibitor (I) constants (Ki) were determined for the inhibition of a series of human enzymes (FXa, thrombin, trypsin, plasmin, protein Ca, streptokinase, tPA, and urokinase) by each compound. Chromogenic substrate assays were performed using a Labsystems IEMS (Cergy Pontoise, France) microtiter plate reader. In each assay, the compound was tested at a minimum of seven concentrations in duplicate to obtain an inhibition curve. Assays were performed according to the following general procedure. In a 96-well microtiter plate, 25 μL of compound, inhibitor solution or buffer was added to 50 μL of substrate. A volume of 25 μL of enzyme solution was added just before the plate was placed in the microtiter plate reader for 1 h at 37 °C. The hydrolysis of the substrate yields p-nitroaniline, which was continuously monitored spectrophotometrically at 405 nm. Data were collected and the initial rate of substrate hydrolysis [Vo (mOD/minute)] was calculated. Following Michaelis-Menten kinetics, the affinity of the enzyme for the substrate, in the absence of the inhibitor (Km) and in the presence of an inhibitor (Kp), was determined to be the negative inverse x-intercept of Lineweaver–Burk plots. The dissociation constant for inhibition (Ki) was calculated using the following equation: Ki = (Km·[I])/(Kp − Km) as described by Williams and Morrison[40].

[2] = system: Streptokinase (Homo sapiens); test: Chromogenic substrate assay, Ki determination, Streptokinase; format: biochemical; details: for Ki: substrate S-2251
Procedure: as §1

[3] = system: Trypsin; test: Chromogenic substrate assay, Ki determination, Trypsin; format: biochemical, human; details: for Ki: substrate S-2222
Procedure: as §1

[4] = target: Plasmin (Homo sapiens, UniProt P00747); test: Chromogenic substrate assay, Ki determination, Plasmin; format: biochemical; details: for Ki: substrate S-2251
Procedure: as §1

[5] = target: Protein Ca (Homo sapiens, UniProt P04070); test: Chromogenic substrate assay, Ki determination, Protein Ca; format: biochemical; details: for Ki: substrate S-2366
Procedure: as §1

[6] = target: T1, FXa (Homo sapiens, UniProt P00742); test: Chromogenic substrate assay, Ki determination, Factor Xa; format: biochemical; details: for Ki: substrate S-2765 (Table 3), mean ± SD (n = 5)
T1 construct: purchased Haematologic Technologies (Essex Junction, VT, USA)
Procedure: as §1

[7] = target: T2, α-Thrombin (Homo sapiens, UniProt P00734); test: Chromogenic substrate assay, Ki determination, α-Thrombin; format: biochemical; details: for Ki: substrate S-2238
T2 construct: FXa converts prothrombin to thrombin; purchased Haematologic Technologies (Essex Junction, VT, USA)
Procedure: as §1

[8] = system: C57BL/6 mice; test: Tail bleeding time; format: in vivo; details: tail-cutting assay, mean ± SD, n = 10
Procedure: Figure 4 Effects of compounds 1–4 on clotting and bleeding time. (A) One hour after administration (intravenous injection) of compound 1 (white box), 2 (light gray box), 3 (dark gray box), or 4 (black box), blood was collected from the mice and platelet-poor plasma (PPP) was obtained by centrifugation at 2,000 × g for 10 min at room temperature to test ex vivo activated partial thromboplastin time (aPTT). (B) Each group received a daily intravenous injection of the indicated compound for four consecutive days. Fifteen minutes after the last administration, blood samples were collected and in vivo aPTT was measured. (C) Fifteen minutes after administration of each compound or aspirin (4.5 or 9 mg/kg for 30 min) or the vehicle, tail tips (3 mm long) were cut from each mouse, and the remaining tail was immediately immersed into saline at 37 °C. Accumulated bleeding times (including periods of re-bleeding) were recorded. D = 0.2% DMSO used as the vehicle control. Data are presented as means ± SD of three independent experiments. *p < 0.05 vs. vehicle alone, analyzed by one-way ANOVA, followed by Tukey multiple comparison testing.
To assess bleeding risk incurred by compounds 1–4, we measured bleeding time in mice treated with each compound (up to 30 µM/mouse) by using a tail-cutting assay; the concentration used was three-fold higher than the doses used for the in vivo anti-thrombotic studies. Aspirin-treated mice (9 mg/kg) served as positive controls. […] However, the bleeding time in mice treated with compounds 1–4 was shorter than that observed in mice treated with aspirin ([…], mean ± SD, n = 10). The dose required to avoid thrombus formation and to protect against paralysis or death in mice was determined to be 5 µM per mouse (Fig. 7C).
Tail bleeding times were measured using the method described by Dejana et al.[37]. Briefly, C57BL/6 mice were fasted overnight prior to the experiments. […] after the i.v. administration of each compound, the tails of the mice were transected […] from their tips. Bleeding time was defined as the time elapsed until bleeding stopped. Bleeding times that exceeding 15 min were recorded as 15 min.

[9] = target: Urokinase (Homo sapiens, UniProt P00749); test: Chromogenic substrate assay, Ki determination, Urokinase; format: biochemical; details: for Ki: substrate S-2444
Procedure: as §1

[10] = target: T1, FXa; test: Inhibition of amidolytic activity of FXa toward S-2222 (Michaelis-Menten, Lineweaver-Burk; with or without TFPI); format: biochemical; details: for type of inhibition of FXa (Lineweaver-Burk plots) / slope of inhibition activity plot: S-2222; for slope of inhibition activity plot: FXa; for Ki: substrate S-2222
Procedure: To elucidate the mechanisms responsible for inhibition of coagulation and platelet aggregation by compounds 1–4, inhibition of FXa activity was determined using chromogenic substrates. […] We observed a decrease in Vmax, with no effect on the Km of FXa toward S-2222 in the presence of compound 1. […] We also observed a slope of 0.401 for the control without compound 2, and slopes of 0.442 and 0.465 for compound 2 at concentrations of 2 and 5 µM, respectively. […] We observed a decrease in Vmax, with no effect on the Km of FXa toward S-2222 in the presence of compound 2. […] Inhibition activity plots were obtained for different concentrations of compound 3, showing a slope of 0.388 for the control without compound 3, and slopes of 0.408 and 0.464 for compound 3 at concentrations of 2 and 5 µM, respectively. […] We also observed a slope of 0.363 for the control without compound 4, and slopes of 0.376 and 0.398 for compound 4 at concentrations of 2 and 5 µM, respectively. […] We observed a decrease in Vmax, with no effect on the Km of FXa toward S-2222 in the presence of compound 4.
Figure 6 Effects of compounds 1–4 on inhibition and production of FXa. […] The plots represent means of three independent measurements. (E) Human umbilical vein endothelial cells (HUVECs) were pre-incubated with the indicated concentration of each compound for 10 min. HUVECs stimulated with tumor necrosis factor-α (TNF-α, 10 ng/mL for 6 h) were incubated with FVIIa (10 nM) and FX (175 nM) in the absence or presence of anti-TF IgG (25 µg/mL). FXa production was determined as described in the “ Supplementary Materials and Methods” section. D = 0.2% DMSO used as the vehicle control. (F) Inhibition of FXa by each compound (5 μM) with or without TFPI (2 nM) was monitored using a chromogenic assay. ^* p < 0.05 vs. TNF-α alone (E) or each compound (F) alone, analyzed via one-way ANOVA, followed by Tukey multiple comparison testing.
Each compound with or without TFPI was dissolved in 50 mM Tris-HCl buffer (pH 7.4) containing 7.5 mM EDTA and 150 mM NaCl. Following a 2-min incubation at 37 °C, FXa solution (150 μL, 1 U/mL) was added, followed by incubation at 37 °C for 1 min. S-2222 (an FXa substrate, 150 μL, 1.5 mM) solution was subsequently added, and the absorbance at 405 nm was monitored for 20 min using a spectrophotometer (TECAN, Männedorf, Switzerland). The absorbance-time curve and the slope of the curve (Vi) were used to represent the activity of the enzyme. Distilled water served as a control (the slope of curve V0). The inhibitory effect was calculated according to equation (1):1 Inhibitoryrate(%)=(V0−Vi)/V0×100 where V0 represents the slope of the vehicle and Vi represents the slope of the samples.

tPA, sequence (P00750 36-562): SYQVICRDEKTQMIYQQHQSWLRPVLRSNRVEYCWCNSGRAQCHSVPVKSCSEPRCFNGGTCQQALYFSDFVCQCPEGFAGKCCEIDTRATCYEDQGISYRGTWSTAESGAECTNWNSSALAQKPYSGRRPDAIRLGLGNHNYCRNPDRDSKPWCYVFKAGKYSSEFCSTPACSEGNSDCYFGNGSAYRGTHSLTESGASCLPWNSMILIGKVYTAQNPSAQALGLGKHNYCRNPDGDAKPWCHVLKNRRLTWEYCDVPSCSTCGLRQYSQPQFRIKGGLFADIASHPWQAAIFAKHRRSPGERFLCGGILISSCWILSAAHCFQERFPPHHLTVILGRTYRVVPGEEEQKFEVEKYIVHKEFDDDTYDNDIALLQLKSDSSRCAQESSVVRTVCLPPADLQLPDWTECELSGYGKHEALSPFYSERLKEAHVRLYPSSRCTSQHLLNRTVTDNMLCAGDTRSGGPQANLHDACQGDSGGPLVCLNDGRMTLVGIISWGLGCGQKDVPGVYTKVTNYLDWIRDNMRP
Plasmin, sequence (P00747 581-810 limits assumed): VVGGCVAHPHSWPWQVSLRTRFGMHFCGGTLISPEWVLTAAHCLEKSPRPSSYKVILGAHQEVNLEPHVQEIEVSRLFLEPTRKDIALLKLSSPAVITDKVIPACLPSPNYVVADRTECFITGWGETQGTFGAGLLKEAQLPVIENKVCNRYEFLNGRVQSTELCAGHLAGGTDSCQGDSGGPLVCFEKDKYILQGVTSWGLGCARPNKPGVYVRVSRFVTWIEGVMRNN
Plasmin, sequence (P00747 97-580 limits assumed): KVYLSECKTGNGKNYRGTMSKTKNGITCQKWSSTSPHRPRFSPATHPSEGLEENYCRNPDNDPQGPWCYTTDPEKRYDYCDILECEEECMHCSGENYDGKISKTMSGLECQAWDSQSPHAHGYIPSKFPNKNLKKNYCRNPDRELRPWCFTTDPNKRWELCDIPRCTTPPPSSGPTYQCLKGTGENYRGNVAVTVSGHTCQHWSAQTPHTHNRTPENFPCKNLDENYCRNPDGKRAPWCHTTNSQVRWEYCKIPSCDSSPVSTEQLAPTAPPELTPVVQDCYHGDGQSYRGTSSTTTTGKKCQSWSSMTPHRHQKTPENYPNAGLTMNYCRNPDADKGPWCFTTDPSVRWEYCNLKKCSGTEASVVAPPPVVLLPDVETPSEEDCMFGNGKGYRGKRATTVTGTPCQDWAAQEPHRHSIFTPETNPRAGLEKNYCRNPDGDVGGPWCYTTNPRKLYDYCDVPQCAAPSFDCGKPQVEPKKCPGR
Streptokinase (Homo sapiens), sequence (P00747 581-810 limits assumed): as the sequence (P00747 581-810 limits assumed) above
Protein Ca, sequence (P04070 212-461 limits assumed): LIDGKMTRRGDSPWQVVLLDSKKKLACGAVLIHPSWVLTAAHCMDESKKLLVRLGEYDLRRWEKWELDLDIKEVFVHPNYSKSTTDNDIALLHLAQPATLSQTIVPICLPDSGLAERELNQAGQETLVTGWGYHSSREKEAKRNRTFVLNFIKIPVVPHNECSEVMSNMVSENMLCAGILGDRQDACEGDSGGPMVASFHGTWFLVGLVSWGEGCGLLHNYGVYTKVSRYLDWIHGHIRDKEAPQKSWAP
Protein Ca, sequence (P04070 43-197 limits assumed): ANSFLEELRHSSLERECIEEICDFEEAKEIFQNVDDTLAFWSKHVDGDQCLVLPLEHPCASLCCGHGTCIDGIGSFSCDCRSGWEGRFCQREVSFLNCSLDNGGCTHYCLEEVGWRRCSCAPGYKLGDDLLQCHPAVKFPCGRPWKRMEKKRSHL
T1 sequence (P00742 235-488 limits assumed): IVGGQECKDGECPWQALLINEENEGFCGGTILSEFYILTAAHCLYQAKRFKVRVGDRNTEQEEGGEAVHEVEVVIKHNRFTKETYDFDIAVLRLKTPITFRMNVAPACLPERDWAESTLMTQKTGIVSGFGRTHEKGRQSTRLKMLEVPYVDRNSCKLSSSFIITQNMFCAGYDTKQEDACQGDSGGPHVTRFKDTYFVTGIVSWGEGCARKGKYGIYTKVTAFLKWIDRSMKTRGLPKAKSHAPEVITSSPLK
T1 sequence (P00742 41-179 limits assumed): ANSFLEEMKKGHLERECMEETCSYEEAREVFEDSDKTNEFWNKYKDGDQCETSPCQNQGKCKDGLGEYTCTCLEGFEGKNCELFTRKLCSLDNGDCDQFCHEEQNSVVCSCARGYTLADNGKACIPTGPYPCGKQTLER

CC(=O)NCCc1ccc2c(c1)O[C@@H](NC(C)=O)[C@@H](c1ccc(O)c(O)c1)O2 [Compound 2, (2 R,3 R)-2-(3′,4′-dihydroxyphenyl)-3-acetylamino-6-(N-acetyl-2″-aminoethyl)-1,4-benzodioxane]
Ratio = Ki enzyme/Ki Factor Xa, tPA [1]: >100
Ki [1]: > 500 µM
Ratio = Ki enzyme/Ki Factor Xa, Streptokinase [2]: >100
Ki [2]: > 500 µM
Ratio = Ki enzyme/Ki Factor Xa, Trypsin [3]: >100
Ki [3]: > 500 µM
Ratio = Ki enzyme/Ki Factor Xa, Plasmin [4]: >100
Ki [4]: > 500 µM
Ratio = Ki enzyme/Ki Factor Xa, Protein Ca [5]: >100
Ki [5]: > 500 µM
Ratio = Ki enzyme/Ki Factor Xa, Factor Xa [6]: 1
Ki [6]: 4.13 ± 0.43 µM
Ratio = Ki enzyme/Ki Factor Xa, α-Thrombin [7]: >100
Ki [7]: > 500 µM
bleeding time ([8]; mice treated with 10 µM): 12.5 ± 1.2 min
bleeding time ([8]; mice treated with 30 µM): 13.5 ± 1.1 min
Ratio = Ki enzyme/Ki Factor Xa, Urokinase [9]: >100
Ki [9]: > 500 µM
Km of FXa toward S-2222 in the presence of compound [10]: no effect
Vmax of FXa toward S-2222 in the presence of compound [10]: decrease
type of inhibition of FXa (Lineweaver-Burk plots) [10]: noncompetitive inhibition
slope of inhibition activity plot ([10]; compound at 2 µM): 0.442
slope of inhibition activity plot ([10]; compound at 5 µM): 0.465
Ki [10]: 4.13 µM

CC(=O)NCCc1ccc2c(c1)O[C@H](NC(C)=O)[C@@H](c1ccc(O)c(O)c1)O2 [Compound 3, (2 R,3 S)-2-(3′,4′-dihydroxyphenyl)-3-acetylamino-6-(N-acetyl-2″-aminoethyl)-1,4-benzodioxane]
Ratio = Ki enzyme/Ki Factor Xa, tPA [1]: >100
Ki [1]: > 500 µM
Ratio = Ki enzyme/Ki Factor Xa, Streptokinase [2]: >100
Ki [2]: > 500 µM
Ratio = Ki enzyme/Ki Factor Xa, Trypsin [3]: >100
Ki [3]: > 500 µM
Ratio = Ki enzyme/Ki Factor Xa, Plasmin [4]: >100
Ki [4]: > 500 µM
Ratio = Ki enzyme/Ki Factor Xa, Protein Ca [5]: >100
Ki [5]: > 500 µM
Ratio = Ki enzyme/Ki Factor Xa, Factor Xa [6]: 1
Ki [6]: 4.45 ± 0.37 µM
Ratio = Ki enzyme/Ki Factor Xa, α-Thrombin [7]: >100
Ki [7]: > 500 µM
bleeding time ([8]; mice treated with 10 µM): 12.1 ± 1.1 min
bleeding time ([8]; mice treated with 30 µM): 12.3 ± 1.3 min
Ratio = Ki enzyme/Ki Factor Xa, Urokinase [9]: >100
Ki [9]: > 500 µM
Km of FXa toward S-2222 in the presence of compound [10]: no effect
Vmax of FXa toward S-2222 in the presence of compound [10]: decrease
type of inhibition of FXa (Lineweaver-Burk plots) [10]: noncompetitive inhibition
slope of inhibition activity plot ([10]; compound at 2 µM): 0.408
slope of inhibition activity plot ([10]; compound at 5 µM): 0.464
Ki [10]: 4.45 µM

CC(=O)NCCc1ccc2c(c1)O[C@H](c1ccc(O)c(O)c1)[C@@H](NC(C)=O)O2 [Compound 4, (2 R,3 S)-2-(3′,4′-dihydroxyphenyl)-3-acetylamino-7-(N-acetyl-2″-aminoethyl)-1,4-benzodioxane]
Ratio = Ki enzyme/Ki Factor Xa, tPA [1]: >100
Ki [1]: > 500 µM
Ratio = Ki enzyme/Ki Factor Xa, Streptokinase [2]: >100
Ki [2]: > 500 µM
Ratio = Ki enzyme/Ki Factor Xa, Trypsin [3]: >100
Ki [3]: > 500 µM
Ratio = Ki enzyme/Ki Factor Xa, Plasmin [4]: >100
Ki [4]: > 500 µM
Ratio = Ki enzyme/Ki Factor Xa, Protein Ca [5]: >100
Ki [5]: > 500 µM
Ratio = Ki enzyme/Ki Factor Xa, Factor Xa [6]: 1
Ki [6]: 4.72 ± 0.31 µM
Ratio = Ki enzyme/Ki Factor Xa, α-Thrombin [7]: >100
Ki [7]: > 500 µM
Ratio = Ki enzyme/Ki Factor Xa, Urokinase [9]: >100
Ki [9]: > 500 µM
Km of FXa toward S-2222 in the presence of compound [10]: no effect
Vmax of FXa toward S-2222 in the presence of compound [10]: decrease
type of inhibition of FXa (Lineweaver-Burk plots) [10]: noncompetitive inhibition
slope of inhibition activity plot ([10]; compound at 2 µM): 0.376
slope of inhibition activity plot ([10]; compound at 5 µM): 0.398
Ki [10]: 4.72 µM
